# Results reported in article PMC3174134, “Lucanthone and Its Derivative Hycanthone Inhibit Apurinic Endonuclease-1 (APE1) by Direct Protein Binding” (PLoS ONE, 2011).
# Where two headings read alike, the source gives them in different places.
# Tests used:
# APE1 [1] = target: T1, APE1 (Homo sapiens, UniProt P27695); assay: Direct binding by surface plasmon resonance (BIACORE 2000), APE1 immobilized on CM5 chip; parameters: the full length APE1 protein was successfully expressed and purified; made in house; host or cells: E. coli BL21/DE3; conditions: for kd: full length APE1; for kon: pH 7.4, read-out: ka
# Method: APE1 (and its hydrophobic mutants) and lucanthone/hycanthone reaction stoichiometry was studied using surface plasmon resonance on a BIACORE 2000 apparatus (Biacore, GE Healthcare, Sweden) at the protein core facility in SUNYSB, to determine the affinity of the two drugs for APE1 (or NΔ40 APE1). APE1 and its mutants (10 µg) (RUmax values were 9000 RU units after immobilization) were immobilized on a CM5 chip by amine coupling (as per the manufacturer's instructions) and binding experiments were performed at 20°C in 10 mM HBS-EP buffer, pH 7.4. Lucanthone (or hycanthone) (20–700 µM) was injected as analyte over the sensor chip in HBS-EP buffer at 10 µl/min. The regeneration was achieved by 10 mM glycine-HCl, pH 3.0 between each analyte (drug) concentration.
# APE1 [2] = target: T1, APE1; assay: APE1 expression and cleavage in U251 1-5 overexpressor cells pretreated with cycloheximide, Western blot; format: cell-based; conditions: for Cleavage of APE1 (25 kDa fragment): 10 µg/ml cycloheximide 4 h, then 25-100 µM drug 2 h
# Method: (§1) Total purified protein concentration was determined by the ratio of A280/A260. 250 ng of APE1 treated with lucanthone or hycanthone (0.05–100 µM) for 2 h at 37°C in final volume of 30 µl were mixed with an equal volume of gel loading buffer (0.001% bromophenol blue, 4% SDS, 10% 2-ME, 20% glycerol, and 125 mM Tris pH 6.8) and denatured at 95°C for 5 min. Total protein concentration in cell extracts was determined using the Bradford assay (BioRad, Hercules, CA) and 25 µg of total protein from soluble or insoluble cell fractions were mixed with an equal volume of gel loading buffer (0.001% bromophenol blue, 4% SDS, 10% 2-ME, 20% glycerol, and 125 mM Tris pH 6.8) and denatured at 95°C for 5 min. This mixture was separated by SDS-PAGE (4% stacking, 7.5% resolving gel) for 2–3 h at 40 mA on a BioRad MiniPROTEAN II Electrophoresis Cell. To detect proteins, proteins were transferred onto a trans-Blot nitrocellulose membrane (0.45 µm; BioRad) overnight at 4°C at 15 mA in standard Tris-Glycine buffer containing 20% ethanol. Membranes were probed using polyclonal anti-APE1 or polyclonal anti-©-tubulin at 1/1,000 dilution in TTBS (0.1% Tween 20 in TBS (pH 7.5)) with secondary, anti-rabbit HRP-conjugated antibody used at 1/30,000 dilution to detect APE1 and ©-tubulin protein control. Chemi-luminescence was developed using an ECL kit according to the manufacturer's instructions and detected by exposing the blot to HyperfilmECL for 30 s–3 min. (GE Healthcare Biosciences, Piscataway, NJ).
# Western blotting was carried out by 7.5% SDS-PAGE of cell extracts (20 µg total protein per lane) either from APE1 overexpresser clone 5 pretreated with 2.5–200 µM concentration of lucanthone/CRT0044876 or recombinant APE1 for 2 h at 37°C in presence of protease inhibitor cocktail (2 tablets (Roche, # 11836153001) containing mixture of several protease inhibitors with broad inhibitory specificity for serine, cysteine and metalloproteases in all systems, dissolved in 20 ml of APE1 buffer). […]
# [3] = target: T2, recombinant full length APE1 (Homo sapiens, UniProt P27695); assay: Cleavage of recombinant full length APE1, Western blot
# T2 construct: the full length APE1 protein was successfully expressed and purified; made in house; host or cells: E. coli BL21/DE3
# Method: as §1, with “Membranes were probed using polyclonal anti-APE1 or polyclonal anti-©-tubulin at 1/1,000 dilution in TTBS (0.1% Tween 20 in TBS (pH 7.5)) with secondary, anti-rabbit HRP-conjugated antibody used at 1/30,000 dilution to detect APE1 and ©-tubulin protein control.” left out, “(GE Healthcare Biosciences, Piscataway, NJ).” left out
# [4] = target: E.coli endonuclease IV (Nfo) (Escherichia coli, UniProt P0A6C1); assay: Circular dichroism of E.coli Nfo with lucanthone; conditions: 140 µM lucanthone, 37°C, 60 min
# human Nth = target: T3, human Nth (Homo sapiens, UniProt P78549); assay: Cleavage of human Nth by lucanthone (specificity control); conditions: data not shown
# T3 sequence (P78549 23-304): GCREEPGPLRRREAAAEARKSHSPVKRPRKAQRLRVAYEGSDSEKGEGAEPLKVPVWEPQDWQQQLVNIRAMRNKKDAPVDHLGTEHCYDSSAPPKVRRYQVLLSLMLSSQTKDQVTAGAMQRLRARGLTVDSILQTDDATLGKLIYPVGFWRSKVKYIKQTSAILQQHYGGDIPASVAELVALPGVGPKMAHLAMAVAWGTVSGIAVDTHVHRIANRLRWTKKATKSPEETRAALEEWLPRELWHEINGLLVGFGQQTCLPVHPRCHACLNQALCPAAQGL
# T1 sequence (P27695 whole entry): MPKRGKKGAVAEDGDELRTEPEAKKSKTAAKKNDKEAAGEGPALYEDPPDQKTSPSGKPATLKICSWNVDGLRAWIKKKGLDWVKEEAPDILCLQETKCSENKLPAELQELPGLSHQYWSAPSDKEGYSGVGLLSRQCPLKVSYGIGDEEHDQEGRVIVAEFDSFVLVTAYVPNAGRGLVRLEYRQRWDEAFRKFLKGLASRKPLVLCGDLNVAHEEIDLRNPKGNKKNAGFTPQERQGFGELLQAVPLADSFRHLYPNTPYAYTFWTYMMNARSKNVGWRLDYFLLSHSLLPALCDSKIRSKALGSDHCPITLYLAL
# T2 sequence (P27695 whole entry): as above
compound,measurement,setting,value
CCN(CC)CCNc1ccc(CO)c2sc3ccccc3c(=O)c12 [hycanthone],APE1:drug stoichiometry,APE1 [1],~1
same,RUmax,APE1 [1],90 RU
same,Kd,"APE1 [1]; BIACORE, 20°C, HBS-EP pH 7.4, read-out: KD (affinity constant)",10 nM
same,RUligand,APE1 [1]; Conc 22 µM,24 RU
same,RUligand,APE1 [1]; Conc 44 µM,45 RU
same,RUligand,APE1 [1]; Conc 88 µM,78 RU
same,RUligand,APE1 [1]; Conc 176 µM,79 RU
same,RUligand,APE1 [1]; Conc 352 µM,90 RU
same,RUligand,APE1 [1]; Conc 704 µM,118 RU
same,kd,APE1 [1],8.9e-07 s⁻¹
same,"Ka, fold higher than lucanthone",APE1 [1]; hycanthone vs lucanthone,about 8 fold
same,"kd of full length APE1, fold lower than for lucanthone",APE1 [1]; hycanthone vs lucanthone,~100 fold
same,kon,APE1 [1],90 M⁻¹ s⁻¹
same,Cleavage of APE1 (25 kDa fragment),APE1 [2],induce cleavage of APE1
"CCN(CC)CCNc1ccc(C)c2sc3ccccc3c(=O)c12 [lucanthone, 1-[2-diethylaminoethylamino]-4-methylthioxanthen-9-one]",Lucanthone-induced cleavage of APE1 in presence of radical quenchers,"[3]; 10 mM TRIS, 100 µM ascorbic acid or N-acetyl cysteine (purified APE1), 1% DMSO (cell extracts)",significantly inhibited
same,Cleavage of recombinant APE1,"[3]; 10-50 µM, 37°C, 2 h",increase in the formation of the 25 kDa fragment
same,APE1:drug stoichiometry,APE1 [1],may have been lower
same,Kd,APE1 [1],89 nM
same,RUmax,APE1 [1],91 RU
same,RUligand,APE1 [1]; Conc 20 µM,−82 RU
same,RUligand,APE1 [1]; Conc 40 µM,−26 RU
same,RUligand,APE1 [1]; Conc 80 µM,2.5 RU
same,RUligand,APE1 [1]; Conc 160 µM,77 RU
same,RUligand,APE1 [1]; Conc 320 µM,94 RU
same,RUligand,APE1 [1]; Conc 640 µM,62 RU
same,kd,APE1 [1],7.76e-05 s⁻¹
same,kon,APE1 [1],878 M⁻¹ s⁻¹
same,Conformational change of E.coli Nfo (CD),[4],little conformational changes
same,Cleavage of APE1 (25 kDa fragment),APE1 [2],induce cleavage of APE1
same,De novo APE1 synthesis,APE1 [2]; 10 µg/ml cycloheximide 4 h pretreatment,not affected significantly
same,Cleavage of human Nth,human Nth,did not observe any cleavage
